Experimental data reported in paper PMC7059204, “Gonadotropin-Releasing Hormone Receptor-Targeted Near-Infrared Fluorescence Probe for Specific Recognition and Localization of Peritoneal Metastases of Ovarian Cancer” (Frontiers in Oncology, 2020).

Experiments:
[1] = system: A2780 peritoneal metastases of ovarian cancer; assay type: in vivo, Balb/c nude mice
Text: The xenograft model for metastatic ovarian cancer was previously described ([18]). Female Balb/c nude mice (5–6 weeks old) were intraperitoneally injected with 1 × 10^7 A2780 cells. Tumors were allowed to grow for 2–3 weeks. The Institutional Animal Care and Use Committee of Fudan University approved all protocols presented in these studies.
For ex vivo GnRHa-ICG and ICG (0, 1, 10, and 20 μmol/L) imaging, fluorescence signals were taken using the IVIS Lumina K imaging system (PerkinElmer) and the clinically used Fluorescence Navigation system (the FloNavi, Optomedic Technique Inc., Guangdong, China). For intraperitoneal metastasis imaging, 0.72 μmol/kg of GnRHa-ICG or ICG was injected intraperitoneally in mice. Mice were sacrificed at the indicated times (n = 3 per group), and the abdominal cavities were exposed. Fluorescence images were obtained using the IVIS Lumina K imaging system (PerkinElmer) with a 780 nm excitation filter and an 845 nm emission filter. For ex vivo imaging, xenografts and organs were immediately dissected and analyzed after sacrifice.
Fluorescence signals were quantified as the average radiant efficiency ([p/s/cm^2/sr]/[μW/cm^2]) using the Living Image software. The fluorescence intensity was measured by drawing a region of interest (ROI) around the area. The tumor-to-background ratio (TBR) was calculated as the average fluorescence intensity of the tumor divided by that of the skeletal muscle or intestine.

OSE cells = experiment: Fluorescence microscopy cell binding of GnRHa-ICG / ICG; assay type: cell-based, human; conditions: 60 min, 37°C, confocal microscopy
Description: (§1) The cells were placed in an 8-well chamber slide (Ibidi) and grown to ~60% confluence. A2780, CAOV-3, ES-2, and HeyA8 cells were incubated with 100 μmol/L GnRHa-FITC, and A2780, OSE, and H1299 cells were incubated with 20 μmol/L GnRHa-ICG or ICG (Sigma-Aldrich) for 60 min at 37°C. After incubation, the cells were washed with PBS, fixed in 4% paraformaldehyde, labeled with WGA Alexa Fluor 594 conjugate or WGA Alexa Fluor 488 conjugate (Invitrogen), and mounted with DAPI. These samples were analyzed using TCS SP5 confocal microscopy (Leica). For quantitative analysis, the mean fluorescence intensity was calculated using ImageJ software (version 1.50 g).

A2780 cells [2] = experiment: as above; assay type: cell-based, human; conditions: 60 min, 37°C, confocal microscopy
Description: as §1

[3] = system: A2780 and OSE cells (GnRHR-positive); experiment: Flow cytometry blocking experiment with unlabeled GnRHa peptide; assay type: cell-based, human; conditions: pretreated with 100 μmol/L GnRHa peptide 10 min, then 2 μmol/L GnRHa-ICG 30 min, 37°C, triplicate
Description: A2780 and OSE cells were placed in 6-well plates, grown to ~70% confluence, and then incubated with GnRHa-FITC (20 μmol/L) or GnRHa-ICG/ICG (10 μmol/L) for 30 min at 37°C. For the blocking experiments, cells were pretreated with 100 μmol/L GnRHa peptide for 10 min and then incubated with 2 μmol/L GnRHa-ICG for 30 min at 37°C. Samples were measured on a CytoFLEX flow cytometer (Beckman Coulter) or a FACSAria flow cytometer (BD Biosciences). All samples were examined in triplicate. Data were analyzed using FlowJo software (version X 10.0.7).

A2780 cells [4] = experiment: Cell viability assay (Cell Counting Kit-8); assay type: cell-based, human; conditions: 0, 1, 10, 100 μmol/L, 48 h exposure, CCK-8, 4 sub-wells
Description: A2780 cells were seeded in 96-well plate and grown to ~40% confluence. Cells were incubated with GnRHa-ICG at different concentrations: 0, 1, 10, and 100 μmol/L. Each group had 4 sub-wells. After exposure for 48 h, cell viabilities were assessed by Cell Counting Kit-8 assay (Dojindo). The absorbance at 450 nm (reference wavelength: 630 nm) was measured with a microplate reader.

Balb/c nude mice = experiment: In vivo toxicity test; conditions: 1.5 mg/kg intraperitoneal, n = 4
Description: The toxicity of GnRHa-ICG was determined in Balb/c nude mice (n = 4). Two groups received intraperitoneal injections of 1.5 mg/kg GnRHa-ICG and were followed for 2 and 96 h. The control group received vehicle alone. Blood draws were done to assess alanine transaminase (ALT), aspartate transaminase (AST), blood urea nitrogen (BUN), creatinine (CREA), white blood cells (WBC), and red blood cells (RBC). Tissues of the heart, lung, liver, spleen and kidney were harvested for HE staining.

[5] = 2 h post administration, 0.72 μmol/kg intraperitoneal, IVIS Lumina K, ex 780/em 845 nm, mean ± SD, n = 3 per group
[6] = 20 μmol/L, mean fluorescence intensity by ImageJ

| course of tumor fluorescence intensity ([1]; mouse, in vivo) | Molecule | tumor-to-intestine ratio [1, 5] | tumor-to-muscle ratio [1, 5] | fluorescence in control (normal, non-tumor) mice ([1]; mouse, in vivo, ip) | fluorescence signal, times lower than with incubation of GnRHa-ICG (OSE cells; 20 μM each) [times] | fluorescence signal, times lower than with incubation of GnRHa-ICG (A2780 cells [2]; 20 μM each) [times] | effect of competition with unlabeled GnRHa on fluorescence intensity [3] | cell viability after exposure (tumorigenic potential) (A2780 cells [4]) | course of tumor-to-background ratio (TBR) over time ([1]; between 2 and 48 h, intraperitoneal) | ex vivo imaging of the brain (binding to hypothalamic GnRHR) ([1]; mouse, in vivo) | fluorescence in benign retroperitoneal lymph nodes versus tumor ([1]; mouse, in vivo) | time at which fluorescence signal of A2780 xenografts peaked in intensity ([1]; mouse, in vivo, ip) [h] | time for which tumor fluorescence intensities were maintained ([1]; mouse, in vivo, ip) | time of highest fluorescence density in the liver ([1]; mouse, in vivo, ip) [h] | ALT, AST, CREA, WBC and RBC, control versus test groups (Balb/c nude mice; 2 and 96 h) | BUN (Balb/c nude mice; 96 h after injection) | histological observation of main organs (heart, lung, liver, spleen, kidney; HE staining) (Balb/c nude mice) | fluorescence intensity, fold higher than in H1299 cells (GnRHR-negative) (OSE cells; [6]) [fold] | fluorescence intensity, fold higher than in H1299 cells (GnRHR-negative) (A2780 cells [2]; [6]) [fold] |
| --- | --- | --- | --- | --- | --- | --- | --- | --- | --- | --- | --- | --- | --- | --- | --- | --- | --- | --- | --- |
| decreased quickly within 48 h | CC1(C)C(/C=C/C=C/C=C/C=C2\N(CCCCS(=O)(=O)O)c3ccc4ccccc4c3C2(C)C)=[N+](CCCCS(=O)(=O)[O-])c2ccc3ccccc3c21 [ICG, Indocyanine green, reference compound] | 0.57 ± 0.06 | 4.60 ± 0.50 | high fluorescence signals | 2.25 | 2.61 | – | – | – | – | – | – | – | – | – | – | – | – | – |
| – | D-2-Nal-D-4-Cl-Phe-D-3-Pal-Ser-Tyr-D-Cit-Leu-Arg-Pro-D-Ala-NH2 [GnRHa-ICG] | – | – | did not show fluorescence signals | – | – | partial reduction in fluorescence intensity | does not increase cell viability | stable | did not show fluorescence signals | fewer fluorescence signals | 2 | up to 48 h | 24 | no significant difference | slight decrease | did not present any obvious damage | 1.34 | 1.56 |
